Assay results as given in ChEMBL document CHEMBL1130807, “The synthesis of symmetrical and unsymmetrical P1/P1' cyclic ureas as HIV protease inhibitors” (Bioorg Med Chem Lett, 1998).
In brackets after ≈: the same amount, converted by molar mass.

What was measured:
[1] = target: Human immunodeficiency virus type 1 protease (Human immunodeficiency virus 1, UniProt Q72874); assay: Inhibition of human immunodeficiency virus (HIV) protease isolated enzyme assay
[2] = Antiviral activity was evaluated by whole cell based assay; assay type: functional
[3] = Solubility in 0.1 N HCl; assay type: physicochemical; conditions: read-out: S
[4] = tested on: Human immunodeficiency virus 1; assay: Compound was evaluated for potency against Double mutant HIV I84V/V82F strains; assay type: functional
[5] = tested on: Human immunodeficiency virus 1; assay: Compound was evaluated for potency against HIV single mutant I84V strain; assay type: functional
[6] = tested on: Human immunodeficiency virus 1; assay: Compound was evaluated for potency against […] HIV WT strain; assay type: functional

Row | SMILES | Ki [1] | IC90 [2] | solubility [3] | IC90 [4] | IC90 [5] | IC90 [6]
1 | CCCCCC[C@@H]1[C@H](O)[C@@H](O)[C@@H](CCCCCC)N(Cc2cccc(C(=O)Nc3nc4ccccc4[nH]3)c2)C(=O)N1Cc1cccc(C(=O)Nc2nc3ccccc3[nH]2)c1 | 0.35 nM | 86 nM | – | – | – | –
2 | O=C(Nc1nc2ccccc2[nH]1)c1cccc(CN2C(=O)N(Cc3cccc(C(=O)Nc4nc5ccccc5[nH]4)c3)[C@H](Cc3ccccc3)[C@H](O)[C@@H](O)[C@H]2Cc2ccccc2)c1 | – | 5 nM | 0.05 µg/mL (≈ 0.0606 µM) | 21 nM | 5 nM | 5 nM
3 | O=C(Nc1nc2ccccc2[nH]1)c1cccc(CN2C(=O)N(Cc3cccc(C(=O)Nc4nc5ccccc5[nH]4)c3)[C@H](C3CCCCC3)[C@H](O)[C@@H](O)[C@H]2C2CCCCC2)c1 | 0.29 nM | 14 nM | – | – | – | –
4 | CC[C@@H]1[C@H](O)[C@@H](O)[C@@H](CC)N(Cc2cccc(C(=O)Nc3nc4ccccc4[nH]3)c2)C(=O)N1Cc1cccc(C(=O)Nc2nc3ccccc3[nH]2)c1 | 4.5 nM | 570 nM | – | – | – | –
5 | CC[C@@H]1[C@H](O)[C@@H](O)[C@@H](Cc2ccccc2)N(Cc2cccc(C(=O)Nc3nc4ccccc4[nH]3)c2)C(=O)N1Cc1cccc(C(=O)Nc2nc3ccccc3[nH]2)c1 | 0.069 nM | 26 nM | – | – | – | –
6 | CN(C)c1ccc(C[C@@H]2[C@H](O)[C@@H](O)[C@@H](Cc3ccc(N(C)C)cc3)N(Cc3cccc(C(=O)Nc4nc5ccccc5[nH]4)c3)C(=O)N2Cc2cccc(C(=O)Nc3nc4ccccc4[nH]3)c2)cc1 | 0.038 nM | 8 nM | 13.2 µg/mL (≈ 14.5 µM) | 22 nM | 8 nM | 8 nM
7 | CCCCCC[C@@H]1[C@H](O)[C@@H](O)[C@@H](Cc2ccccc2)N(Cc2cccc(C(=O)Nc3nc4ccccc4[nH]3)c2)C(=O)N1Cc1cccc(C(=O)Nc2nc3ccccc3[nH]2)c1 | 0.046 nM | 9 nM | 118 µg/mL (≈ 144 µM) | 24 nM | 24 nM | 9 nM
8 | COc1ccc(C[C@@H]2[C@H](O)[C@@H](O)[C@@H](Cc3ccc(OC)cc3)N(Cc3cccc(C(=O)Nc4nc5ccccc5[nH]4)c3)C(=O)N2Cc2cccc(C(=O)Nc3nc4ccccc4[nH]3)c2)cc1 | 0.026 nM | 19 nM | – | – | – | –
9 | O=C(Nc1nc2ccccc2[nH]1)c1cccc(CN2C(=O)N(Cc3cccc(C(=O)Nc4nc5ccccc5[nH]4)c3)[C@H](Cc3ccc(OCc4ccccc4)cc3)[C@H](O)[C@@H](O)[C@H]2Cc2ccc(OCc3ccccc3)cc2)c1 | 3.7 nM | 125 nM | – | – | – | –
10 | CC(C)C[C@@H]1[C@H](O)[C@@H](O)[C@@H](CC(C)C)N(Cc2cccc(C(=O)Nc3nc4ccccc4[nH]3)c2)C(=O)N1Cc1cccc(C(=O)Nc2nc3ccccc3[nH]2)c1 | 0.3 nM | 59 nM | – | 12 nM | 20 nM | 26 nM
11 | O=C(Nc1nc2ccccc2[nH]1)c1cccc(CN2C(=O)N(Cc3cccc(C(=O)Nc4nc5ccccc5[nH]4)c3)[C@H](Cc3ccc(O)cc3)[C@H](O)[C@@H](O)[C@H]2Cc2ccc(O)cc2)c1 | 0.035 nM | 35 nM | – | – | – | –
12 | Nc1ccc(C[C@@H]2[C@H](O)[C@@H](O)[C@@H](Cc3ccc(N)cc3)N(Cc3cccc(C(=O)Nc4nc5ccccc5[nH]4)c3)C(=O)N2Cc2cccc(C(=O)Nc3nc4ccccc4[nH]3)c2)cc1 | 0.016 nM | 10 nM | 8.3 µg/mL (≈ 9.71 µM) | 76 nM | 23 nM | 10 nM
13 | CC(C)C[C@@H]1[C@H](O)[C@@H](O)[C@@H](Cc2ccccc2)N(Cc2cccc(C(=O)Nc3nc4ccccc4[nH]3)c2)C(=O)N1Cc1cccc(C(=O)Nc2nc3ccccc3[nH]2)c1 | 0.038 nM | 10 nM | 160 µg/mL (≈ 202 µM) | 82 nM | 9 nM | 10 nM
